Experiment [1] has as its system PC-9. As to the kind of experiment: Potency index, ratio of 5-fluorouracil IC50 to compound IC50 for human PC9 cells. Format: functional.
Experiment [2] has as its target Lysine-specific histone demethylase 1A (Homo sapiens, UniProt O60341).
Description: Inhibition of recombinant human LSD1 (157 to 852 residues) expressed in Escherichia coli BL21(DE3) using H3K4me2 as substrate preincubated for 1 hr followed by substrate addition by fluorescence assay
The subject of experiment [3] is MGC-803. As to the kind of experiment: cells. The conditions noted are these: Homo sapiens, MGC-803, read-out: GI.
Description: Cytotoxicity against human MGC803 cells assessed as growth inhibition at 10 uM by MTT assay relative to control
The test system of experiment [4] is ECa-109 cell line. As to the kind of experiment: cells. The conditions noted are these: Homo sapiens, ECa-109, read-out: GI.
Description: Cytotoxicity against human EC109 cells assessed as growth inhibition at 10 uM by MTT assay relative to control
The test system of experiment [5] is A549. As to the kind of experiment: cells. The conditions noted are these: Homo sapiens, A549, read-out: GI.
Description: Cytotoxicity against human A549 cells assessed as growth inhibition at 10 uM by MTT assay relative to control
Experiment [6] has as its system PC-9. As to the kind of experiment: cells. To be noted: Homo sapiens, PC-9, read-out: GI.
Description: Cytotoxicity against human PC9 cells assessed as growth inhibition at 10 uM by MTT assay relative to control
Experiment [7] deals with MGC-803. As to the kind of experiment: cells. To be noted: Homo sapiens.
Description: Cytotoxicity against human MGC803 cells assessed as growth inhibition by MTT assay
The test system of experiment [8] is ECa-109 cell line. As to the kind of experiment: cells. To be noted: Homo sapiens.
Description: Cytotoxicity against human EC109 cells assessed as growth inhibition by MTT assay
Experiment [9] relates to A549. As to the kind of experiment: cells. The conditions noted are these: Homo sapiens.
Description: Cytotoxicity against human A549 cells assessed as growth inhibition by MTT assay
The test system of experiment [10] is PC-9. As to the kind of experiment: cells. To be noted: Homo sapiens.
Description: Cytotoxicity against human PC9 cells assessed as growth inhibition by MTT assay
Experiment [11] relates to MGC-803. As to the kind of experiment: Anti-migratory activity against human MGC803 cells at 10 uM after 24 hrs by Hoechst 33258 staining based transwell assay relative to control. The experiment is classed as functional. To be noted: MGC-803, 24 h.
Experiment [12] has as its system MGC-803. As to the kind of experiment: Anti-migratory activity against human MGC803 cells after 24 hrs by Hoechst 33258 staining based transwell assay. Format: functional, cell-based.
For experiment [13], the system named is MGC-803. As to the kind of experiment: Effect on E-cadherin expression in human MGC803 cells at 5 to 10 uM after 24 hrs by Western blot method. Format: functional, cell-based.
The test system of experiment [14] is MGC-803. As to the kind of experiment: Effect on N-cadherin expression in human MGC803 cells at 5 to 10 uM after 24 hrs by Western blot method. Format: functional, cell-based.
Experiment [15] relates to PC-9. As to the kind of experiment: Anti-migratory activity against human PC9 cells after 24 hrs by Hoechst 33258 staining based transwell assay. The experiment is classed as functional, cell-based.
Experiment [16] deals with PC-9. As to the kind of experiment: Increase in E-cadherin expression in human PC9 cells at 5 to 10 uM after 24 hrs by Western blot method. Format: functional, cell-based.
The test system of experiment [17] is PC-9. As to the kind of experiment: Decrease in N-cadherin expression in human PC9 cells at 5 to 10 uM after 24 hrs by Western blot method. Format: functional, cell-based. (A western blot detects proteins with antibodies after separation by electrophoresis.)

pIC50: −log10 of the molar value. Activity calls are given as the source filed them. The rule behind the calls is not given here. Bounds are passed on as bounds.

A word on the pIC50: it is the negative decadic logarithm of the IC50, by convention in mol/L. In the case of `COc1cc(/C=C/C(=O)c2ccc(Nc3cc(C)nc4nc(SCc5nc6ccccc6[nH]5)nn34)cc2)cc(OC)c1OC`, the “Ratio IC50” value in experiment [1] came to 4. Besides, the pIC50 in experiment [2] was below 5.00; in [7], 5.61; in experiment [8], 5.49; in experiment [9] it was 5.06; in [10], 6.24. Moreover, the inhibition of growth at 10 µM came to 81.3% in experiment [3], 76.4% in experiment [4], 71.6% in experiment [5] and 93.1% in experiment [6].
Broadly, the inhibition is the share of the control response that was lost under treatment. A higher inhibition goes with a strong effect. In the case of `Cc1cc(NNC(N)=S)n2nc(SCc3ccccc3)nc2n1`, the inhibition at 10 µM in [11] came out at 21%. For the same molecule, the Activity entry in experiment [12] and in [15] was “Dose-dependent effect” in each case. The outcome in experiment [13] and in experiment [14] was inactive. Further, the result in experiment [16] and in [17] was Active. This molecule showed a pIC50 in [2] of 6.81. Moreover, the inhibition of growth at 10 µM in [3] was 2.1%; in experiment [4], 14.2%; in experiment [5], 25.6%; in [6], 30.7%.
